According to patent US12448409B2, “Oxysterols and methods of use thereof” (priority 2016, dated 2025):
Read-outs that look alike come from different tables or passages of the source.

Target: T1, GlunN1/GluN2A glutamate receptors (Homo sapiens, UniProt Q05586+Q12879)
T1 construct: expressed in transfected cells
Assay: cell-based
Description: NMDA potentiation was assessed using the whole cell patch clamp of mammalian cells which expressed NMDA receptors.
Whole-Cell Patch Clamp of Mammalian Cells (Ionworks Barracuda (IWB)
The whole-cell patch-clamp technique was used to investigate the effects of compounds on GlunN1/GluN2A glutamate receptors expressed in mammalian cells.
HEK293 cells were transformed with adenovirus 5 DNA and transfected with cDNA encoding the human GRIN1/GRIN2A genes. Stable transfectants were selected using G418 and Zeocin-resistance genes incorporated into the expression plasmid and selection pressure maintained with G418 and Zeocin in the medium. Cells were cultured in Dulbecco's Modified Eagle Medium/Nutrient Mixture (D-MEM/F-12) supplemented with 10% fetal bovine serum, 100 μg/ml penicillin G sodium, 100 μg/ml streptomycin sulphate, 100 μg/ml Zeocin, 5 μg/ml blasticidin and 500 μg/ml G418.
Test article effects were evaluated in 8-point concentration-response format (4 replicate wells/concentration). All test and control solutions contained 0.3% DMSO and 0.01% Kolliphor® EL (C5135, Sigma). The test article formulations were loaded in a 384-well compound plate using an automated liquid handling system (SciClone ALH3000, Caliper LifeScienses). The measurements were perfomed using Ion Works Barracuda platform following this procedure:
Electrophysiological Procedures:
• a) Intracellular solution (mM): 50 mM CsCl, 90 mM CsF, 2 mM MgCl2, 5 mM EGTA, 10 mM HEPES. Adjust to pH 7.2 with CsOH. • b) Extracellular solution, HB-PS (composition in mM): NaCl, 137; KCl, 1.0; CaCl2, 5; HEPES, 10; Glucose, 10; pH adjusted to 7.4 with NaOH (refrigerated until use). • c) Holding potential: −70 mV, potential during agonist/PAM application: −40 mV. Recording procedure: • a) Extracellular buffer will be loaded into the PPC plate wells (11 μL per well). Cell suspension will be pipetted into the wells (9 μL per well) of the PPC planar electrode. • b) Whole-cell recording configuration will be established via patch perforation with membrane currents recorded by on-board patch clamp amplifiers. • c) Two recordings (scans) will be performed. First, during pre-application of test article alone (duration of pre-application—5 min) and second, during test articles and agonist (EC20 L-glutamate and 30 μM glycine) co-application to detect positive modulatory effects of the test article.
Test Article Administration: The first pre-application will consist of the addition of 20 μL of 2× concentrated test article solution and, second, of 20 μL of 1× concentrated test article and agonist at 10 μL/s (2 second total application time).

[1] = 3 μM test article, HEK293 cells expressing human GRIN1/GRIN2A, co-application with EC20 L-glutamate and 30 μM glycine, read-out: GluN2A PCA IWB Ephys % potentiation at 3 μM
[2] = HEK293, read-out: GluN2A PCA IWB Ephys % potentiation at 3 μM

T1 sequence (Q12879 23-1464, other chains not shown): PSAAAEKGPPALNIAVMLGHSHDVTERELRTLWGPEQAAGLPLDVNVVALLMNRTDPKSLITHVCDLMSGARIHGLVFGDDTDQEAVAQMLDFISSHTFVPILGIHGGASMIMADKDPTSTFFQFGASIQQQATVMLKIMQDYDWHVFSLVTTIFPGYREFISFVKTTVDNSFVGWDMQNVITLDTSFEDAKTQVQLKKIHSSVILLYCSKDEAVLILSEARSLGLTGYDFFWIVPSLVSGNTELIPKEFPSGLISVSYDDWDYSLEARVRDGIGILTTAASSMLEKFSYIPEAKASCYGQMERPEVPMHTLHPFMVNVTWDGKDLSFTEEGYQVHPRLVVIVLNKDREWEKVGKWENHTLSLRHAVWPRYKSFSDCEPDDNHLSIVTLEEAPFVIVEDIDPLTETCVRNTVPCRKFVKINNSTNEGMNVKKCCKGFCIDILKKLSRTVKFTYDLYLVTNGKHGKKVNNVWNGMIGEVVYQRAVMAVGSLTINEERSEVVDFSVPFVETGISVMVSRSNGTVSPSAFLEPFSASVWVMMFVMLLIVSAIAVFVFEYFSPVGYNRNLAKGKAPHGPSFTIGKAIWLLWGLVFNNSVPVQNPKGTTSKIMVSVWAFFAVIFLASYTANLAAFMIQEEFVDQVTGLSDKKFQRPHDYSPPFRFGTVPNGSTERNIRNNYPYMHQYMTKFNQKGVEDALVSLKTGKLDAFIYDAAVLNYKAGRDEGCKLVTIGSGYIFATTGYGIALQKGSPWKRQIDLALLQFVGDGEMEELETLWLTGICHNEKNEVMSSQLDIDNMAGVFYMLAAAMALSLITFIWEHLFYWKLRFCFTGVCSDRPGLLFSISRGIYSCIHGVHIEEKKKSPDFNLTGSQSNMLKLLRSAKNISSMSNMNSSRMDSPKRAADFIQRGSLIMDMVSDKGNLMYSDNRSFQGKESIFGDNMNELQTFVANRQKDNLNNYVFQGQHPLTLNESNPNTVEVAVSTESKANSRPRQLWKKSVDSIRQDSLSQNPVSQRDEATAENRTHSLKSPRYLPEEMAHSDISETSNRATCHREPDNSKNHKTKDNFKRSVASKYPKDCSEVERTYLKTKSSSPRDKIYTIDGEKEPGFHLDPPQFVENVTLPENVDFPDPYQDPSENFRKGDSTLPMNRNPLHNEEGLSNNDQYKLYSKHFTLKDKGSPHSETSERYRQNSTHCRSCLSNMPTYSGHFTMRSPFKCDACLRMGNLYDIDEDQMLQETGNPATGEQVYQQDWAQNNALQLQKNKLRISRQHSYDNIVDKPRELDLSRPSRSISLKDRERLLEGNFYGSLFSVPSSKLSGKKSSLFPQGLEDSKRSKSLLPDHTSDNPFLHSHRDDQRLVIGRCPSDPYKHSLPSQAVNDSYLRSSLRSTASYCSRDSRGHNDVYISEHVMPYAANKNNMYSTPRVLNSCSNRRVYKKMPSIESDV

Compound: C[C@H](CCC1(O)CCC(F)(F)CC1)[C@H]1CC[C@H]2[C@@H]3CC=C4C[C@@](C)(O)CC[C@]4(C)[C@H]3CC[C@]12C [Compound 1]
- activation at 3 µM [1]: > 150%

Compound: C[C@H](CCC1(O)CCCCC1)[C@H]1CC[C@H]2[C@@H]3CC=C4C[C@@](C)(O)CC[C@]4(C)[C@H]3CC[C@]12C [Compound 2]
- activation at 3 µM [1]: > 150%

Compound: C[C@H](CCC1(O)CCCC1)[C@H]1CC[C@H]2[C@@H]3CC=C4C[C@@](C)(O)CC[C@]4(C)[C@H]3CC[C@]12C [Compound 3]
- activation at 3 µM [1]: > 150%

Compound: C[C@H](CCC1(O)CCC1)[C@H]1CC[C@H]2[C@@H]3CC=C4C[C@@](C)(O)CC[C@]4(C)[C@H]3CC[C@]12C [Compound 4]
- activation at 3 µM [1]: 100 to 150%

Compound: C[C@H](CC[C@]1(O)CCOC1)[C@H]1CC[C@H]2[C@@H]3CC=C4C[C@@](C)(O)CC[C@]4(C)[C@H]3CC[C@]12C [Compound 5-A]
- activation at 3 µM [1]: 100 to 150%

Compound: C[C@H](CC[C@@]1(O)CCOC1)[C@H]1CC[C@H]2[C@@H]3CC=C4C[C@@](C)(O)CC[C@]4(C)[C@H]3CC[C@]12C [Compound 5-B]
- activation at 3 µM [1]: > 150%

Compound: C[C@H](CCC1(O)CCOC1)[C@H]1CC[C@H]2[C@@H]3CC=C4C[C@@](C)(O)CC[C@]4(C)[C@H]3CC[C@]12C (some centres unmarked) [Compound 5]
- activation at 3 µM [1]: > 150%

Compound: C[C@H](CCC1(O)CCOCC1)[C@H]1CC[C@H]2[C@@H]3CC=C4C[C@@](C)(O)CC[C@]4(C)[C@H]3CC[C@]12C [Compound 6]
- activation at 3 µM [1]: 100 to 150%

Compound: C[C@H](CCC1(O)CCNCC1)[C@H]1CC[C@H]2[C@@H]3CC=C4C[C@@](C)(O)CC[C@]4(C)[C@H]3CC[C@]12C [Compound 7]
- activation at 3 µM [2]: 100 to 150%

Compound: C[C@H](CCC1(O)CCN(C)CC1)[C@H]1CC[C@H]2[C@@H]3CC=C4C[C@@](C)(O)CC[C@]4(C)[C@H]3CC[C@]12C [Compound 8]
- activation at 3 µM [1]: 10 to 100%

Compound: CC(=O)N1CCC(O)(CC[C@@H](C)[C@H]2CC[C@H]3[C@@H]4CC=C5C[C@@](C)(O)CC[C@]5(C)[C@H]4CC[C@]23C)CC1 [Compound 9]
- activation at 3 µM [1]: > 150%

Compound: C[C@H](CCC1(O)CCC(C)(C)CC1)[C@H]1CC[C@H]2[C@@H]3CC=C4C[C@@](C)(O)CC[C@]4(C)[C@H]3CC[C@]12C [Compound 10]
- activation at 3 µM [2]: 10 to 100%

Compound: C[C@H](CCC1(O)CCCOC1)[C@H]1CC[C@H]2[C@@H]3CC=C4C[C@@](C)(O)CC[C@]4(C)[C@H]3CC[C@]12C (some centres unmarked) [Compound 11]
- activation at 3 µM [1]: > 150%

Compound: CC[C@]1(O)CC[C@@]2(C)C(=CC[C@H]3[C@@H]4CC[C@H]([C@H](C)CCC5(O)CCC(F)(F)CC5)[C@@]4(C)CC[C@@H]32)C1 [Compound 12]
- activation at 3 µM [1]: > 150%

Compound: CC[C@]1(O)CC[C@@]2(C)C(=CC[C@H]3[C@@H]4CC[C@H]([C@H](C)CCC5(O)CCC(C)(C)CC5)[C@@]4(C)CC[C@@H]32)C1 [Compound 13]
- activation at 3 µM [1]: 10 to 100%

Compound: CC[C@]1(O)CC[C@@]2(C)C(=CC[C@H]3[C@@H]4CC[C@H]([C@H](C)CCC5(O)CCOCC5)[C@@]4(C)CC[C@@H]32)C1 [Compound 14]
- activation at 3 µM [1]: > 150%

Compound: CC[C@]1(O)CC[C@@]2(C)C(=CC[C@H]3[C@@H]4CC[C@H]([C@H](C)CCC5(O)CCCOC5)[C@@]4(C)CC[C@@H]32)C1 (some centres unmarked) [Compound 15]
- activation at 3 µM [1]: > 150%

Compound: C[C@H](CCC1(O)CCC(F)(F)CC1)[C@H]1CC[C@H]2[C@@H]3CC[C@H]4C[C@@](C)(O)CC[C@]4(C)[C@H]3CC[C@]12C [Compound 16]
- activation at 3 µM [1]: 10 to 100%

Compound: C[C@H](CC[C@]1(O)CCOC1)[C@H]1CC[C@H]2[C@@H]3CC[C@H]4C[C@@](C)(O)CC[C@]4(C)[C@H]3CC[C@]12C [Compound 17]
- activation at 3 µM [1]: > 150%

Compound: C[C@H](CCC1(O)CCOCC1)[C@H]1CC[C@H]2[C@@H]3CC[C@H]4C[C@@](C)(O)CC[C@]4(C)[C@H]3CC[C@]12C [Compound 18]
- activation at 3 µM [1]: > 150%

Compound: C[C@H](CCC1(O)CCCOC1)[C@H]1CC[C@H]2[C@@H]3CC[C@H]4C[C@@](C)(O)CC[C@]4(C)[C@H]3CC[C@]12C (some centres unmarked) [Compound 19]
- activation at 3 µM [1]: > 150%

Compound: C[C@H](CCC1(O)CCC(C)(C)CC1)[C@H]1CC[C@H]2[C@@H]3CC[C@H]4C[C@@](C)(O)CC[C@]4(C)[C@H]3CC[C@]12C [Compound 20]
- activation at 3 µM [1]: 10 to 100%

Compound: CC[C@]1(O)CC[C@@]2(C)[C@@H](CC[C@@H]3[C@@H]2CC[C@]2(C)[C@@H]([C@H](C)CCC4(O)CCC(F)(F)CC4)CC[C@@H]32)C1 [Compound 21]
- activation at 3 µM [1]: > 150%

Compound: CC[C@]1(O)CC[C@@]2(C)[C@@H](CC[C@@H]3[C@@H]2CC[C@]2(C)[C@@H]([C@H](C)CCC4(O)CCC(C)(C)CC4)CC[C@@H]32)C1 [Compound 22]
- activation at 3 µM [1]: 10 to 100%

Compound: CC[C@]1(O)CC[C@@]2(C)[C@@H](CC[C@@H]3[C@@H]2CC[C@]2(C)[C@@H]([C@H](C)CCC4(O)CCOCC4)CC[C@@H]32)C1 [Compound 23]
- activation at 3 µM [1]: > 150%

Compound: CC[C@]1(O)CC[C@@]2(C)[C@@H](CC[C@@H]3[C@@H]2CC[C@]2(C)[C@@H]([C@H](C)CCC4(O)CCCOC4)CC[C@@H]32)C1 (some centres unmarked) [Compound 24]
- activation at 3 µM [1]: > 150%
